What was measured:
[1] = tested on: SH-SY5Y human neuroblastoma cells; experiment: Neuroprotection against Aβ1-42-induced toxicity, MTT; format: cell-based; conditions: Aβ1-42 2.5 μM 24 h; 1 h pre-incubation; compounds 1, 2 100 µM; 4 10 µM; 5 20 µM
Description: SH-SY5Y human neuroblastoma cells (ATCC-CRL-2266) were seeded in DMEM/F12 (Dulbecco’s Modified Eagle Medium/Ham’s F-12 Nutrient Mixture; Thermo Fisher Scientific) with 10% heat inactivated fetal bovine serum, 50 U/mL penicillin and 50 U/mL streptomycin under a humidified atmosphere with 95% relative humidity at 37 °C at a 0.16 × 10^6 cells/mL density. Stock solutions from tested compounds (1, 2, 4 and 5) were prepared in DMSO at a 25 mM concentration and stored at −20 °C until needed. In order to select the highest non-toxic concentration, a dose-response screening was performed, where SH-SY5Y cells were exposed to the compounds for 25 h. The selected concentrations for each compound were: 75 µM final concentration for 1 and 2; 10 µM final concentration for 4 and 20 µM final concentration for 5. […] For the neuroprotection assays, the selected compounds were added to the cell media 1 hour prior to the incubation with Aβ1-42 or L-ascorbic acid/ferrous sulphate. Aβ1-42 or L-ascorbic acid/ferrous sulphate treatment was maintained for another 24 h. Aβ1-42 was prepared as 276.9 µM stock in sterile water and administrated in the medium at a 2.5 µM final concentration. Ferrous sulphate was freshly prepared as 0.36 M stock in water and added to the medium at 2.5 mM final concentration. L-ascorbic acid was freshly prepared as 80 mM stock in water and added to the medium at 5 mM final concentration. Aβ1-42 was purchased from Bachem (Torrance, CA, USA) and ferrous sulphate and L-ascorbic acid from Sigma Chemical Co (St. Louis, MO, USA).
Cell viability was measured by using the MTT (3-(4,5-dimethylthiazol-2-yl)-2,5-diphenyl tetrazolium bromide) reduction assay. This test is based on the presence of succinate dehydrogenase enzyme in viable cells, that allows them to metabolize MTT into a formazan. After treatment, the medium was removed, and cells were washed with 1x PBS one time to remove dead cells. 200 µL of MTT solution (0.5 mg/mL) was added to each well and incubated for 2 h protected from light. Formazan precipitates were then dissolved in DMSO and absorbance measured at 570 nm. The ability to reduce MTT was expressed as a percentage of untreated control cells.
Overnight cultures were treated with Aβ1-42 peptide (2.5 μM) for 24 h in the absence or in the presence of the compounds. When compounds were present, a pre-incubation of 1 h preceded the Aβ1-42 treatment. Cellular viability was determined by employing the MTT reduction assay. […] (compounds: 1, 2–100 µM; 4–10 µM; 5–20 µM).

[2] = molecular target: T1, Aβ1-42 (Homo sapiens, UniProt P05067); experiment: Inhibition of Cu2+-induced Aβ1-42 aggregation, thioflavin T fluorescence; format: biochemical; conditions: inhibitor 40 µM, copper 40 µM, read-out: Inhib. Aβ Aggreg. Cu2+-Induced
T1 construct: Amyloid β peptide (Aβ1-42) was purchased from GeneCust as a lyophilised powder; purchased GeneCust
T1 sequence (P05067 672-713 limits assumed): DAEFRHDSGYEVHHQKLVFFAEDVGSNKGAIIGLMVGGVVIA
Description: The anti-amyloidogenic activity of all the compounds was also evaluated in vitro, in the absence and in presence of Cu(II), by measuring the fluorescence emission of Thioflavin T (ThT). […] The Aβ self-aggregation inhibitory activity shown by all compounds is higher than that of parent compound TA, with the exception of compound 2 (probably due to solubility issues at the experimental conditions of the assays). The fact that the reference value previously reported by us for TA (50 ± 8%) was obtained for quite different conditions, including a much higher inhibitor concentration (100 μM instead of 40 μM) is noteworthy. […] This may be due to different electronic contributions between the ketone and the ester functions. Therefore, the ester derivatives seem to be better chelators compared to TA.
The spectrofluorimetric method, based on the fluorescence emission of thioflavin T (ThT), was used to study the Aβ1-42 aggregation inhibition. Firstly, Aβ1-42 was dissolved in HFIP (1,1,1,3,3,3-Hexafluoro-2-propanol) and kept overnight at room temperature in order to obtain a dry film. Then, the film was re-dissolved in CH3CN-Na2CO3 (300μM)/NaOH (250μM) (48.3/48.3/3.4 mL v/v/v) and then phosphate buffer (pH = 8) was added. The ligand solutions were prepared with MeOH (1mg/mL) and further with phosphate buffer. For the inhibition studies of copper-induced Aβ aggregation, a solution of CuCl2 240 μM was used. As a control, a solution of 30 μL of phosphate buffer and 30 μL of Aβ1-42 was used to observe the aggregation without any inhibition, while the ligand assay solutions were composed of 20 μL of phosphate buffer, 30 μL of Aβ1-42 and 10 μL of ligand. The Cu-induced aggregation studies were similarly conducted, adding 10 μL of CuCl2 to induce the fibril aggregation. Each experiment was composed of an assay and a blank sample, where the blank sample lacks Aβ1-42, to monitor the effect of the compounds on the fluorescence emission. The samples were left to incubate in a CERTOMAT WR water bath for 24 h at 37 °C with shaking. After 24 h, a Glycine-NaOH buffer (pH = 8.5) containing ThT were added to each sample in a microplate. The fluorescence signal was monitored at 446 nm (λexc) and 486 nm (λem) with a Varian Cary Eclipse fluorimeter. Amyloid β peptide (Aβ1-42) was purchased from GeneCust as a lyophilised powder and stored at −20 °C [12, 13, 14].

| Compound | protection against Aβ1-42-induced toxicity [1] | inhibition at 40 µM [2] [%] |
| --- | --- | --- |
| CCOC(=O)C1=C(O)C(C(C)C)NC1=O (stereo not shown) [Compound 1, Ethyl 4-hydroxy-5-isopropyl-2-oxo-2,5-dihydro-1H-pyrrole-3-carboxylate] | do not confer protection | 36.6 |
| CCOC(=O)C1=C(O)C(Cc2ccccc2)NC1=O (stereo not shown) [Compound 2, Ethyl 5-benzyl-4-hydroxy-2-oxo-2,5-dihydro-1H-pyrrole-3-carboxylate] | do not confer protection | 28.2 |

From publication PMC7830597, “Derivatives of Tenuazonic Acid as Potential New Multi-Target Anti-Alzheimer’s Disease Agents” (Biomolecules, 2021)
